Measured values: patent EP4772506A1, “COMPOUND FOR REGULATING ACTIVITY OF MICRORNA-124” (Jiangsu Chia Tai Fenghai Pharmaceutical Co., Ltd., priority 2023, dated 2025)
Values belong to the compound of their own block, whether it stands above or below them.

Tests used:
[1] = Pharmacokinetic study in beagle dogs (plasma, LC-MS/MS); assay type: in vivo
Description: The pharmacokinetic characteristics of test compound 45 was investigated in beagle dogs.
The gavage group was fasted for no less than 12 hours before administration, with free access to water. After 4 h of administration, the dogs were fed uniformly. […] The upper plasma layer was transferred and stored at -20°C until sample analysis. The concentration of the test compound in dog plasma was determined using the LC-MS/MS method. Pharmacokinetic parameters were fitted using WinNonlin software, and absolute bioavailability was calculated. Table 6. Pharmacokinetic parameters of compounds in beagle dogs

[2] = Pharmacokinetic study in rats (plasma, LC-MS/MS); conditions: for AUC(0-t) / MRT inf / half-life / Cmax / Tmax: rat
Description: • (1) SD male rats were used as test animals.
The administration solvent was a physiological saline solution containing 10% DMSO + 10% polyoxyl castor oil (Cremophor EL). Fasting was maintained for approximately 12 hours prior to administration, and free feeding was allowed 4 hours post-administration, with no water restriction. […] After gently inverting the tube to fully mix the anticoagulant EDTA-K2 with the blood, the tube was immediately placed on wet ice. The plasma was separated by centrifugation immediately after blood collection under the following centrifugation conditions: 4°C, 3500 rpm, and 5 min. The upper plasma layer was transferred and stored at -80°C until sample analysis. […] The pharmacokinetic parameters were calculated from the sample analysis results using WinNonlin software.

miR124 = assay: Effect of the compound on miR124 upregulation in PBMCs (qPCR, U6 as internal reference); assay type: cell-based, human; conditions: miR-124 expression, 5 µM, 6 days, batches normalized
Description: The effect of test compounds on miR124 expression levels was evaluated in human peripheral blood mononuclear cells (PBMCs). […] Test compounds (final concentration: 5 µM) were added for treatment at 37°C, 5% CO2 for 6 days, with medium replacement on day 3. The control group was treated with an equal volume of DMSO under the same conditions.
RNA Extraction: On day 6, cells were collected in a 15 mL centrifuge tube and centrifuged at 400g for 10 min, followed by supernatant removal. […] The upper RNA layer was aspirated into a clean 1.5 mL centrifuge tube (RNase-free), an equal volume of isopropanol was added, and left at room temperature for 10 min to precipitate RNA. Centrifugation at 4°C and 12000g for 10 min yielded a small white pellet at the tube bottom.
Fluorescent quantitative PCR reaction: miRNA quantification was performed using SYBR Green I intercalating fluorescence method, with simultaneous detection of the housekeeping gene U6 transcript level as internal reference.

[3] = system: dextran sulfate sodium (DSS)-induced ulcerative colitis; assay: Preventive and therapeutic effects on DSS-induced ulcerative colitis (UC) in mice; assay type: in vivo, C57BL/6 mice; conditions: 50 mg/kg qd by gavage; for relative body weight (% of initial): mean ± SEM
Description: The preventive and therapeutic effects of the positive drug ABX464 and Compound 23 of the present disclosure on dextran sulfate sodium (DSS)-induced ulcerative colitis were evaluated using a DSS-induced ulcerative colitis (UC) model.
Female C57BL/6 mice (20-22 g) were randomly divided into 7 groups according to body weight after adaptive feeding, as shown in Table 4. On day 1, the mice were switched to 3% DSS feeding. After 10 days of DSS feeding, they were switched back to normal drinking water until day 13. From day 1 to day 13, the mice were continuously administered the corresponding solvents and drugs by gavage. Body weight changes were recorded daily from day 1 to day 13. On day 13, after recording body weight, the mice were dissected to measure colon length. The preventive and therapeutic effects of the test drug on ulcerative colitis in mice were evaluated based on relative body weight change rate and colon length. Table 4. Experimental animal grouping and model induction period

[4] = male, Sprague-Dawley (SD), plasma, po, 20 mg/kg

Structure (SMILES): FC(F)(F)Oc1ccc(Nc2ncc3c(N4CCOCC4)cc(Cl)cc3n2)cc1 [Compound 45]
F ([1]; absolute bioavailability, p.o. 6 mg/kg vs i.v. 1 mg/kg): 10.7% | AUC(0-t) ([1]; dog, in vivo, iv, i.v. 1mg/kg): 1560 ng·h/mL | MRT inf ([1]; dog, in vivo, iv, i.v. 1mg/kg): 3.56 h | half-life ([1]; dog, in vivo, iv, i.v. 1mg/kg): 8.88 h | AUC(0-t) ([1]; dog, in vivo, po, p.o. 6 mg/kg): 990 ng·h/mL | Cmax ([1]; dog, in vivo, po, p.o. 6 mg/kg): 204 ng/mL | MRT inf ([1]; dog, in vivo, po, p.o. 6 mg/kg): 5.9 h | Tmax ([1]; dog, in vivo, po, p.o. 6 mg/kg): 2 h | half-life ([1]; dog, in vivo, po, p.o. 6 mg/kg): 7.18 h | F ([2]; absolute bioavailability, SD male rats, p.o. 25 mg/kg vs i.v. 1 mg/kg): 27.6% | AUC(0-t) ([2]; in vivo, iv, 1 mg/kg): 1180 ng·h/mL | MRT inf ([2]; in vivo, iv, 1 mg/kg): 1.5 h | half-life ([2]; in vivo, iv, 1 mg/kg): 2.2 h | AUC(0-t) ([2]; in vivo, po, 25 mg/kg): 8400 ng·h/mL | Cmax ([2]; in vivo, po, 25 mg/kg): 2550 ng/mL | MRT inf ([2]; in vivo, po, 25 mg/kg): 3.2 h | Tmax ([2]; in vivo, po, 25 mg/kg): 2 h | half-life ([2]; in vivo, po, 25 mg/kg): 5.4 h

AUC(0-t) [2, 4]: 2310 ng·h/mL | Cmax [2, 4]: 727 ng/mL | MRT inf [2, 4]: 2.73 h | Tmax [2, 4]: 2 h | half-life [2, 4]: 0.86 h
Structure (SMILES): FC(F)(F)Oc1ccc(Nc2ccc3cccc(Cl)c3n2)cc1 [ABX464, reference compound]
Average fold change compared to DMSO treatment, Average value (miR124): 6.91 | weight loss ([3]; by day 10): 6.02% | relative body weight (% of initial) ([3]; day 1): 100±0.00% | relative body weight (% of initial) ([3]; day 2): 101.6± 0.45% | relative body weight (% of initial) ([3]; day 3): 101.9± 0.47% | relative body weight (% of initial) ([3]; day 4): 101.9± 0.62% | relative body weight (% of initial) ([3]; day 5): 101.1± 0.82% | relative body weight (% of initial) ([3]; day 6): 98.5±0.79% | relative body weight (% of initial) ([3]; day 7): 95.6±1.09% | relative body weight (% of initial) ([3]; day 8): 93.5± 1.35% | relative body weight (% of initial) ([3]; day 9): 93.0±1.33% | relative body weight (% of initial) ([3]; day 10): 94.0± 1.27 % | relative body weight (% of initial) ([3]; day 11): 92.4± 2.22 % | relative body weight (% of initial) ([3]; day 12): 92.7±2.19% | Colon length Mean ([3]; day 13): 7.72 cm | relative body weight (% of initial) ([3]; day 13): 92.0±2.52% | Relative colon length (%) ([3]; of the control group, day 13, 50 mg/kg): 96.5%
